# In US6576668B1, “Remedies for arthrosis deformans” (Santen Pharmaceutical Co., Ltd., priority 1999, dated 2003):
# Legend:
# [1] = test system: mobility of knee joint, rabbit-immobilized models; experiment: Improvement effect on mobility of knee joint in rabbit-immobilized models; assay type: in vivo, NZW rabbits; settings: for Mobility of knee joint (degree): measured on 29th day, control 42, average of ten samples
# From the text: In order to study in vivo effects of the present compound on osteoarthritis, an improvement effect on a mobility of a knee joint was investigated by using rabbit-immobilized models. A test compound was suspended in a 1% aqueous methyl cellulose solution to prepare test compound solutions having desired concentrations. Knee joints of right hind paws of NZW rabbits (13 weeks old, body weight: 2.97 to 3.27 kg) were fixed in an extended position with plaster bandages under sodium pentobarbital (25 mg/kg) anesthesia. Administering orally the test compound (amount of liquid to be administered: 10 ml/kg) to the rabbits for four weeks, the rabbits were sacrificed by exsanguination on the 29th day, and then mobilities of the knee joints were measured. A similar experiment was carried out by using a 1% aqueous methyl cellulose solution (10 ml/kg) as a control instead of the test compound. The mobility of the knee joint was determined from a difference between a maximum flection angle obtained when a paw joint of the rabbit was vertically loaded with a load of 400 g and a maximum extension angle.
# [2] = test system: MMP-3 production of chondrocytes; experiment: MMP-3 production of IL-1β-treated chondrocytes (MMP-3 activity in culture supernatant); assay type: cell-based; settings: Oryctolagus cuniculus, Chondrocyte, 48 h, rabbit chondrocytes, IL-1β 1 ng/ml, two days culture, average of three samples, read-out: Production inhibition rate (%) (MMP-3)
# From the text: In order to study utility of the present compound, actions of the present compound on MMP-3 production and degradation of proteoglycan after IL-1β treatment were studied by using chondrocytes separated from femurs of rabbit knee joints according to the report of Nose et al. (J. Rheumatology, 24, 550-554 (1997)). The action on MMP-3 production was studied by measuring MMP-3 activity. The action on degradation of proteoglycan was studied by measuring glycosaminoglycan (GAG) being a degradation product of proteoglycan. Femurs of knee joints of male Japanese white rabbits were enucleated. Surface cartilage of the femur was sliced into small pieces, and then tissues were dissociated by enzyme treatment to prepare chondrocytes. A mammal cell culture basal medium D-MEM (Dulbecco's Modified Eagle Medium, produced by Gibco Co., Ltd.) containing β-ketoglutaric acid (5 μg/ml), L-ascorbic acid (50 μg/ml), lactoalbumin hydrolyzate (0.2 mg/ml), penicillin (100 U/ml) and streptomycin (100 μg/ml) (hereinafter referred to as “medium A”) was prepared. […] A culture supernatant was collected, and MMP-3 activity in the supernatant was measured with MMP-3 assay Kit (produced by Yagai Co., Ltd.). […]
# [3] = test system: degradation of proteoglycan in chondrocytes; experiment: Degradation of proteoglycan in IL-1β-treated chondrocytes (GAG concentration in supernatant); assay type: cell-based; settings: Oryctolagus cuniculus, Chondrocyte, 48 h, rabbit chondrocytes, IL-1β 1 ng/ml, two days culture, average of three samples, read-out: Degradation inhibition rate (%) (proteoglycan)
# From the text: In order to study utility of the present compound, actions of the present compound on MMP-3 production and degradation of proteoglycan after IL-1β treatment were studied by using chondrocytes separated from femurs of rabbit knee joints according to the report of Nose et al. (J. Rheumatology, 24, 550-554 (1997)). The action on MMP-3 production was studied by measuring MMP-3 activity. The action on degradation of proteoglycan was studied by measuring glycosaminoglycan (GAG) being a degradation product of proteoglycan. Femurs of knee joints of male Japanese white rabbits were enucleated. Surface cartilage of the femur was sliced into small pieces, and then tissues were dissociated by enzyme treatment to prepare chondrocytes. A mammal cell culture basal medium D-MEM (Dulbecco's Modified Eagle Medium, produced by Gibco Co., Ltd.) containing β-ketoglutaric acid (5 μg/ml), L-ascorbic acid (50 μg/ml), lactoalbumin hydrolyzate (0.2 mg/ml), penicillin (100 U/ml) and streptomycin (100 μg/ml) (hereinafter referred to as “medium A”) was prepared. […] A GAG concentration in the supernatant was measured according to the method of Farndale et al. (Biochim. Biophys. Acta, 883, 173-177 (1986)). […]
smiles,measurement,setting,value
"CC(C)(S)C(=O)N[C@@H](CS)C(=O)O [Bucillamine, bucillamine]",Mobility of knee joint (degree),[1]; 10 mg/kg orally for four weeks,46 degree
same,Mobility of knee joint (degree),[1]; 30 mg/kg orally for four weeks,48 degree
same,Mobility of knee joint (degree),[1]; 100 mg/kg orally for four weeks,53 degree
same,Effect on mobility of the rabbit knee joint (in words),[1]; 10 to 100 mg/kg orally for four weeks,improves the mobility of the rabbit knee joint dose-dependently
same,inhibition at 3 µM,[2],28%
same,inhibition at 3 µM,[3],19%
